Data: patent US20090069424A1, “TGF-alpha expression inhibitors” (NIKKEN CHEMICALS CO., LTD., priority 2002, published 2009)

Key:
[1] = test system: hepatoma; conditions: clinical, cited from earlier work
[2] = test system: TGF-α expression in oval cells; assay: TGF-α expression in oval cells in a rat induced by D-galactosamine hydrochloride, anti TGF-α immunohistological staining; format: in vivo; conditions: 200 mg/kg/day orally for four days; control strongly positive; FIG. 15
Description: Male SD rats (Crj/CD (SD), 6-week old) were used as an animal, and D-galactosamine hydrochloride (5 ml/kg) prepared as 200 mg/mL with physiological saline was intraperitoneally administered once to each rat to induce oval cells. NIK-333 was suspended in soybean oil, and a dose of 200 mg/kg was orally administered to each rat for 1 to 6 days. To the control group, soybean oil (2 mL/kg) was orally administered. From the next day to 7 days after the start of the administration, the livers were extirpated under anesthesia with passage of time. The livers were subjected to 10% formalin fixation and paraffin embedding, and further to immunological staining by using an anti TGF-α antibody. TGF-α expression levels were analyzed under microscope.
FIGS. 13 to 15 are photographs showing inhibitory effects on TGF-α expression in oval cells induced by the administration of D-galactosamine hydrochloride, when 200 mg/kg/day of NIK-333 was administered for four days (immunohistological staining using an anti TGF-α antibody). Similar observations were obtained in other animals which were analyzed at the same time.

[3] = test system: TGF-α expression in oval cells; assay: Induction of TGF-α positive oval cells of a rat by 3′-MeDAB, anti TGF-α immunohistological staining of liver; format: in vivo
Description: Male Fischer rats (F344/N Slc, 6-week old) were used as an animal, and the rats were given with solid feed prepared to contain a hepatic chemical carcinogen 3′-MeDAB in a ratio of 0.06% for four weeks to induce oval cells. NIK-333 was suspended in soybean oil, and a dose of 80 mg/kg was orally administered to each rat for four weeks (once/a day) along with the administration of 3′-MeDAB. To a control group, soybean oil (5 mL/kg) was orally administered. After 4 weeks from the start of the administration of 3′-MeDAB, livers were extirpated under anesthesia. The livers were subjected to 10% formalin fixation and paraffin embedding, and further to immunological staining by using an anti TGF-α antibody. TGF-α expression levels were analyzed under microscope.
FIGS. 1 to 3 are photographs showing inhibitory effects on induction of TGF-α positive oval cells induced by the four-week administration of 3′-MeDAB, when 80 mg/kg/day of NIK-333 was simultaneously administered for four weeks (immunohistological staining by using the anti TGF-α antibody). Similar observations were obtained in other animals which were analyzed at the same time.

[4] = test system: TGF-α expression in non-tumor hepatic tissue; assay: TGF-α expression in non-tumor hepatic tissue of a rat after DEN administration, anti TGF-α immunohistological staining; format: in vivo; conditions: 80 mg/kg/day orally for 14 weeks from one week after 5-week DEN; control strongly positive; FIGS. 6 and 9
Description: Male Fischer rats (F344/N Slc, 6-week old) were used as an animal, and the rats were administered with a hepatic chemical carcinogen DEN for 5 weeks in a form of drinking water (concentration: 40 ppm), and then bred with normal drinking water for successive 15 weeks to induce hepatocellular carcinoma. NIK-333 was suspended in soybean oil, and a dose of 80 mg/kg was orally administered to each rat for 14 weeks (once/a day) from one week after the end of the administration of DEN. To a control group, soybean oil (5 mL/kg) was orally administered. After 20 weeks from the start of the administration of DEN, livers were extirpated under anesthesia. The livers were subjected to 10% formalin fixation and paraffin embedding, and further to immunological staining by using an anti TGF-α antibody. TGF-α expression levels were analyzed under microscope.
FIGS. 4 to 6 are photographs showing inhibitory effects on TGF-α expression in a non-tumor hepatic tissue, when the administration was ceased for one week after the 5-week treatment with DEN, and then 80 mg/kg/day of NIK-333 was administered for 14 weeks (immunohistological staining by using an anti TGF-α antibody). Similar observations were obtained in other animals which were analyzed at the same time.

CC(C)=CCC/C(C)=C/CC/C(C)=C/C=C/C(C)=C/C(=O)O [NIK-333, (2E,4E,6E,10E)-3,7,11,15-tetramethyl-2,4,6,10,14-hexadecapentaenoic acid]
side effect such as dysfunction of liver and those with other retinoids ([1]; during one-year administration): almost no side effect
recurrence after radical cure of hepatoma ([1]; long-term administration for one year): significantly suppressed
TGF-α observation of oval cells expressed by D-galactosamine hydrochloride [2]: weakly positive
TGF-α observation of oval cells expressed with 3′-MeDAB ([3]; 80 mg/kg/day orally for four weeks along with 0.06% 3′-MeDAB feed, control strongly positive, FIG. 3): weakly positive
number of oval cells with strongly positive TGF-α observation, expressed with 3′-MeDAB ([3]; 80 mg/kg/day orally for four weeks along with 3′-MeDAB, versus control, FIG. 12): reduced
TGF-α observation in hepatic tissues surrounding the central vein, expressed by DEN [4]: almost negative
